According to patent US20260335277A1, “CHLOROTONIL DERIVATIVES” (priority 2023, published 2026):
≈ marks a conversion by molar mass, not a printed value. Read-outs that look alike come from different tables or passages of the source.

Experiments:
E. faecalis ATCC-29212 = assay: MIC testing (broth microdilution, EUCAST); assay type: cell-based; details: for MIC: Enterococcus faecalis, ATCC29212, E. faecalis ATCC-29212; for MIC E. faecalis: E. faecalis ATCC-29212
Description: (§1) Minimal inhibitory concentration (MIC) of the compounds in the present invention was determined using broth microdilution performed according to EUCAST guidelines (ISO20776-1:2019). S. aureus ATCC29213 and E. faecalis ATCC29212 served as quality control strains.

[1] = system: E. faecium DSM-17050 (vancomycin-resistant, VRE); assay: MIC testing (broth microdilution, EUCAST); assay type: cell-based; details: for MIC: Enterococcus faecium
Description: as §1

E. faecium DSM-20477 = assay: MIC testing (broth microdilution, EUCAST); assay type: cell-based; details: for MIC: Enterococcus faecium, DSM20477, E. faecium DSM-20477; for MIC E. faecium: E. faecium DSM-20477
Description: as §1

[2] = system: S. aureus N315 (methicillin-resistant, MRSA); assay: MIC testing (broth microdilution, EUCAST); assay type: cell-based; details: for MIC: Staphylococcus aureus, MRSA
Description: as §1

S. aureus Newman = assay: MIC testing (broth microdilution, EUCAST); assay type: cell-based; details: for MIC: Staphylococcus aureus, NEWMAN
Description: as §1

S. epidermidis DSM-28765 = assay: MIC testing (broth microdilution, EUCAST); assay type: cell-based; details: for MIC: Staphylococcus epidermidis, DSM28765, S. epidermidis DSM-28765, read-out: MIC S. epiderm.; for MIC S. epiderm.: S. epidermidis DSM-28765
Description: as §1

zebrafish larvae = assay: Toxicity in zebrafish larvae (MTC / IC50); assay type: in vivo; details: for IC50 in zebrafish larvae: exposed 3 days post fertilization, monitored 48 h; for Selectivity Index S. aureus: zebrafish IC50 / MIC S. aureus Newman; for Selectivity Index P. falc 3D7: zebrafish IC50 vs P. falciparum 3D7
Description: (§2) For toxicity screening, zebrafish larvae were exposed three days post fertilization and monitored for 48 h until five days post fertilization. All malformations and pathophysiological phenotypes were noted and used to determine the inhibitory concentration (IC50) of the respective derivative against zebrafish larvae. The selectivity index (SI) was then calculated using the IC50 and the MIC of either S. aureus or P. falciparum 3D7.

[3] = Toxicity in zebrafish larvae (MTC / IC50); assay type: in vivo; details: zebrafish, zebrafish larvae
Description: as §2

E. faecium = assay: MIC 50/90 profiling in multidrug-resistant clinical isolates; assay type: cell-based; details: Enterococcus faecium; for MIC: read-out: MIC range; for MIC50 / MIC90: E. faecium (n = 98)
Description: as §1
(§3) Activity of dehalogenil against multidrug-resistant clinical isolates of S. aureus (n=100) and Enterococcus spp. […] Compared to the standard of care (linezolid, daptomycin and tigecyclin), dehalogenil MIC90 was lowered in both pathogens by 20-40-fold with unimodal distribution indicating no pre-existing resistances.

[4] = system: clinical isolates of S. aureus; assay: as above; assay type: cell-based; details: Staphylococcus aureus; S. aureus clinical isolates (n = 100)
Description: as §1, §3

[5] = system: mature gametocytes (stages IV and V); assay: Activity against mature gametocytes (stage IV-V), bioluminescence assay; assay type: cell-based, P. falciparum
Description: Activity against gametocytes was determined using an in vitro bioluminescence assay as described previously (doi.org/10.1371/journal.pone.0035019).

[6] = cited from earlier work
S. aureus USA300LAC = assay: S. aureus blood infection (sepsis) model; assay type: in vivo, mouse (CD-1); details: 60 mg/kg
Description: Dehalogenil was further tested in a Staphylococcus blood infection (sepsis) model, alongside linezolid as reference compound. Mice were infected using S. aureus USA300LAC (10^8 CFU/animal) and subsequently treated with a daily total of 5, 10 or 25 mg/kg SC dehalogenil, split into two doses (8 h interval, BID regimen) until 3 days post infection.
Mice were infected intravenously using S. aureus USA300LAC (10^8 CFU/mice). Compounds were administered twice daily starting day 0 until day 3, with the daily total dose indicated. Curves were compared via Mantel-Cox test (Prism), with ***: p<0.001 and **: p<0.01.

[7] = zebrafish IC50 / MIC S. aureus Newman, read-out: Selectivity Index S. aureus
[8] = zebrafish IC50 vs P. falciparum 3D7, read-out: Selectivity Index P. falc 3D7

SMILES	MIC (E. faecalis ATCC-29212) [µg/mL]	MIC E. faecalis (E. faecalis ATCC-29212) [µg/mL]	MIC VRE [1] [µg/mL]	MIC E. faecium (E. faecium DSM-20477) [µg/mL]	MIC MRSA [2] [µg/mL]	MIC S. aureus (S. aureus Newman) [µg/mL]	MIC S. epiderm. (S. epidermidis DSM-28765) [µg/mL]	IC50 in zebrafish larvae (zebrafish larvae) [nM]	other results
CC1=C[C@@H](C)[C@H]2[C@@H]3C(=O)[C@@](F)(Cl)C(=O)[C@H](C)C(=O)O[C@@H](C)/C=C/C=C\[C@@H](C)[C@@H]3C=C[C@@H]2C1 [ChA-4′F]	1.6 (≈ 3.46 µM)	–	–	–	–	–	–	–	MIC [1]: 1.6 µg/mL (≈ 3.46 µM); MIC (E. faecium DSM-20477): 0.8 µg/mL (≈ 1.73 µM); MIC [2]: 1.6 µg/mL (≈ 3.46 µM); MIC (S. aureus Newman): 0.8 µg/mL (≈ 1.73 µM); MIC (S. epidermidis DSM-28765): > 6.4 µg/mL
CC1=C[C@@H](C)[C@H]2[C@@H]3C(=O)[C@@](C)(Cl)C(=O)[C@H](C)C(=O)O[C@@H](C)/C=C/C=C\[C@@H](C)[C@@H]3C=C[C@@H]2C1 [ChA-4′Me]	1.6 (≈ 3.49 µM)	–	–	–	–	–	–	–	MIC [1]: 0.8 µg/mL (≈ 1.74 µM); MIC (E. faecium DSM-20477): 0.8 µg/mL (≈ 1.74 µM); MIC [2]: 1.6 µg/mL (≈ 3.49 µM); MIC (S. aureus Newman): 1.6 µg/mL (≈ 3.49 µM); MIC (S. epidermidis DSM-28765): > 1.6 µg/mL
C=C1C[C@H]2C=C[C@@H]3[C@@H](C(=O)C(Cl)(Cl)C(=O)[C@H](C)C(=O)O[C@@H](C)/C=C/C=C\[C@H]3C)[C@@H]2[C@H](C)C1Cl (stereo partly shown) [ChA-9′Cl]	0.4 (≈ 0.778 µM)	–	–	–	–	–	–	–	MIC [1]: 0.2 µg/mL (≈ 0.389 µM); MIC (E. faecium DSM-20477): 0.2 µg/mL (≈ 0.389 µM); MIC [2]: 0.4 µg/mL (≈ 0.778 µM); MIC (S. aureus Newman): 0.4 µg/mL (≈ 0.778 µM); MIC (S. epidermidis DSM-28765): 0.4 µg/mL (≈ 0.778 µM)
CC1=CC(C)C2C(C=CC3C(C)C=CC=CC(C)OC(=O)C(C)C(=O)C(Cl)=C(O)C32)C1 (stereo not shown) [ChB1, reference compound]	–	0.2 (≈ 0.449 µM)	0.1 (≈ 0.225 µM)	0.1 (≈ 0.225 µM)	0.8 (≈ 1.8 µM)	0.2 (≈ 0.449 µM)	0.4 (≈ 0.899 µM)	–	–
CC1=CC(C)C2C(C=CC3C(C)C=CC=CC(C)OC(=O)CC(=O)C(Cl)=C(O)C32)C1 (stereo not shown) [ChB1-2′DM, 2′Demethylchlorotonil]	–	0.4 (≈ 0.928 µM)	0.4 (≈ 0.928 µM)	0.4 (≈ 0.928 µM)	0.4 (≈ 0.928 µM)	0.4 (≈ 0.928 µM)	1.6 (≈ 3.71 µM)	33240	Selectivity Index S. aureus (zebrafish larvae): 35.8
CC1=CC(C)C2C(C=CC3C(C)C=CC=CC(C)OC(=O)C(C)(C)C(=O)C(Cl)=C(O)C32)C1 (stereo not shown) [ChB1-2′Me]	–	0.8 (≈ 1.74 µM)	0.4 (≈ 0.871 µM)	0.2 (≈ 0.436 µM)	0.8 (≈ 1.74 µM)	0.4 (≈ 0.871 µM)	0.8 (≈ 1.74 µM)	12310	Selectivity Index S. aureus (zebrafish larvae): 14.1; Selectivity Index P. falc 3D7 (zebrafish larvae): 114.0
CC1=C[C@@H](C)[C@H]2[C@@H]3C(=O)C(Cl)=C([O-])[C@H](C)C(=O)O[C@@H](C)/C=C/C=C\[C@@H](C)[C@@H]3C=C[C@@H]2C1.CC1=C[C@@H](C)[C@H]2[C@@H]3C(=O)C(Cl)=C([O-])[C@H](C)C(=O)O[C@@H](C)/C=C/C=C\[C@@H](C)[C@@H]3C=C[C@@H]2C1.CC1=C[C@@H](C)[C@H]2[C@@H]3C(=O)C(Cl)=C([O-])[C@H](C)C(=O)O[C@@H](C)/C=C/C=C\[C@@H](C)[C@@H]3C=C[C@@H]2C1.[Mg+2].[Na+] [ChB2, reference compound]	–	1.6	0.8	0.4	>3.2	3.2	3.2	–	–
CC1C=CC=CC(C)C2C=CC3CC4(C)OC4C(C)C3C2C(=O)CC(=O)C(C)C(=O)O1 (stereo not shown) [Dehalogenil-Epo1]	3.2 (≈ 7.5 µM)	–	3.2 (≈ 7.5 µM)	3.2 (≈ 7.5 µM)	3.2 (≈ 7.5 µM)	3.2 (≈ 7.5 µM)	3.2 (≈ 7.5 µM)	9850	selectivity ratio [3, 7]: 1.31; selectivity ratio [3, 8]: 4.9
CC1C=CC=CC(C)C2C=CC3CC4(C)OC4C(C)C3C2C(=O)CC(=O)C(C)C(=O)O1 (stereo not shown) [Dehalogenil-Epo2]	–	1.6 (≈ 3.75 µM)	0.4 (≈ 0.938 µM)	0.8 (≈ 1.88 µM)	0.2 (≈ 0.469 µM)	0.4 (≈ 0.938 µM)	0.8 (≈ 1.88 µM)	1220	Selectivity Index S. aureus (zebrafish larvae): 1.30; Selectivity Index P. falc 3D7 (zebrafish larvae): 6.2
CCCCCCCCCC(=O)N[C@@H](Cc1c[nH]c2ccccc12)C(=O)N[C@H](CC(N)=O)C(=O)N[C@@H](CC(=O)O)C(=O)N[C@@H]1C(=O)NCC(=O)N[C@@H](CCCN)C(=O)N[C@@H](CC(=O)O)C(=O)N[C@H](C)C(=O)N[C@@H](CC(=O)O)C(=O)NCC(=O)N[C@H](CO)C(=O)N[C@@H]([C@H](C)CC(=O)O)C(=O)N[C@@H](CC(=O)c2ccccc2N)C(=O)O[C@@H]1C [daptomycin]	–	–	–	–	–	–	–	–	MIC (E. faecium): 0.5 to 4 µg/mL (≈ 0.309 to 2.47 µM); MIC50 (E. faecium): 2 µg/mL (≈ 1.23 µM); MIC90 (E. faecium): 4 µg/mL (≈ 2.47 µM); MIC50 [4]: 0.5 µg/mL (≈ 0.309 µM); MIC90 [4]: 4 µg/mL (≈ 2.47 µM)
CC1=CC(C)C2C(C=CC3C(C)C=CC=CC(C)OC(=O)CC(=O)CC(=O)C32)C1 (stereo not shown) [dehalogenil-2′DM, 2′Demethyldehalogenil]	1.6 (≈ 4.04 µM)	–	–	–	–	–	–	27030	MIC [1]: 0.8 µg/mL (≈ 2.02 µM); MIC (E. faecium DSM-20477): 0.8 µg/mL (≈ 2.02 µM); MIC [2]: 0.8 µg/mL (≈ 2.02 µM); MIC (S. aureus Newman): 0.8 µg/mL (≈ 2.02 µM); MIC (S. epidermidis DSM-28765): 3.2 µg/mL (≈ 8.07 µM); IC50 ([5]; Plasmodium falciparum): 499 ± 86.8 nM; selectivity ratio [3, 7]: 13.4; selectivity ratio [3, 8]: 66.2
CC1=CC(C)C2C(C=CC3C(C)C=CC=CC(C)OC(=O)C(C)C(=O)CC(=O)C32)C1 (stereo not drawn) [dehalogenil-2′Epi]	–	0.2 (≈ 0.487 µM)	0.1 (≈ 0.244 µM)	0.05 (≈ 0.122 µM)	0.1 (≈ 0.244 µM)	0.2 (≈ 0.487 µM)	0.4 (≈ 0.974 µM)	38460	IC50 [5]: 25.2 ± 1.63 nM; selectivity ratio [3, 7]: 78.9; selectivity ratio [3, 8]: 1370
CC[C@H](C)[C@H](NC(=O)[C@H]([C@@H](C)CC)N(C)C(C)=O)C(=O)N[C@H](C(=O)N[C@@H](CC(C)C)C(=O)[C@@]1(C)CO1)[C@@H](C)O [epoxomicin]	–	–	–	–	–	–	–	–	toxic effects in vivo [6]: shows toxic effects in vivo
CC(=O)NC[C@H]1CN(c2ccc(N3CCOCC3)c(F)c2)C(=O)O1 [linezolid]	–	–	–	–	–	–	–	–	MIC (E. faecium): 0.5 to 64 µg/mL (≈ 1.48 to 190 µM); MIC50 (E. faecium): 4 µg/mL (≈ 11.9 µM); MIC90 (E. faecium): 4 µg/mL (≈ 11.9 µM); MIC50 [4]: 4 µg/mL (≈ 11.9 µM); MIC90 [4]: 8 µg/mL (≈ 23.7 µM); survival (S. aureus USA300LAC): survival of all animals
CC1=C[C@@H](C)[C@H]2[C@@H]3C(O)=C(SS)C(=O)[C@H](C)C(=O)O[C@@H](C)/C=C/C=C\[C@@H](C)[C@@H]3C=C[C@@H]2C1 [thiotonil]	–	0.2 (≈ 0.421 µM)	0.025 (≈ 0.0527 µM)	0.025 (≈ 0.0527 µM)	0.4 (≈ 0.843 µM)	0.4 (≈ 0.843 µM)	0.4 (≈ 0.843 µM)	–	IC50 [5]: 67.4 ± 8.6 nM; Selectivity Index S. aureus (zebrafish larvae): >62.5; Selectivity Index P. falc 3D7 (zebrafish larvae): >892.9
CN(C)c1cc(NC(=O)CNC(C)(C)C)c(O)c2c1C[C@H]1C[C@H]3[C@H](N(C)C)C(=O)C(C(N)=O)=C(O)[C@@]3(O)C(=O)C1=C2O [tigecyclin]	–	–	–	–	–	–	–	–	MIC (E. faecium): 0.5 to 16 µg/mL (≈ 0.854 to 27.3 µM); MIC50 (E. faecium): 2 µg/mL (≈ 3.41 µM); MIC90 (E. faecium): 2 µg/mL (≈ 3.41 µM); MIC [4]: 1 to 16 µg/mL (≈ 1.71 to 27.3 µM); MIC50 [4]: 4 µg/mL (≈ 6.83 µM); MIC90 [4]: 8 µg/mL (≈ 13.7 µM)
